These results are taken from publication PMC9598282 (Antibiotics, 2022).

What all share (assay): microbe, parasite or virus in culture
In one experiment the test system is P. aeruginosa PAO1. Format: cell-based, Pseudomonas aeruginosa. As to conditions: for MIC: Pseudomonas aeruginosa, PAO1, 18 h, agent alone, one value per checkerboard plate, read-out: MIC alone. As to the method: (§1) The adjuvant properties of the guanidinylated polymyxins were evaluated using the checkerboard assay as previously described. The bacterial solution was prepared as described in the antimicrobial susceptibility assay. The antibiotic of interest and the adjuvant were serially diluted two-fold along the x- and y-axis on a 96-well plate, respectively, resulting in varying concentrations of both agents in each well. Equal volumes of bacterial solution were added to the designated wells. The well consisting of bacterial solution served as the positive control, while the wells containing only media served as the negative control. The plate was then incubated at 37 °C for 18 h. After incubation, an Emax Plus microplate reader (Molecular Devices, Union City, CA, USA) was used to measure the OD at a wavelength of 590 nm to confirm the turbidity. The fractional inhibitory concentration (FIC) index was then determined to establish the relationship between the antibiotic and adjuvant. The FIC index corresponds to the sum of the FICs of the antibiotic and adjuvant. The FIC of each agent is calculated by dividing its MIC when it is used in combination by its MIC when used alone. FIC indices ≤0.5, 0.5 < x ≤ 4 and >4 indicate synergy, additivity and antagonism, respectively.

The subject of the next experiment is A. baumannii ATCC 17978. Type of experiment: cell-based, Acinetobacter baumannii. As to conditions: for MIC: Acinetobacter baumannii, ATCC17978, 18 h, agent alone, one value per checkerboard plate, read-out: MIC alone. As to the method: as §1
Another experiment has as its system E. coli ATCC 25922. Type of experiment: cell-based, Escherichia coli. Also on record: key to FIC index antibiotic + GCol / FIC index antibiotic + GPMB: sum of FICs; ≤0.5 synergy, 0.5–4 additivity, >4 antagonism. As to conditions: for MIC: Escherichia coli, ATCC25922, 18 h, read-out: MIC alone. As to the method: as §1
The mark [1] stands for this setting: agent alone, one value per checkerboard plate.

Turning to `CO[C@@H]1[C@@H](OC(N)=O)[C@@H](O)[C@H](Oc2ccc3c(O)c(NC(=O)c4ccc(O)c(CC=C(C)C)c4)c(=O)oc3c2C)OC1(C)C` [Novobiocin], in the experiment with P. aeruginosa PAO1, the “Absolute MIC of antibiotic at 4 μg/mL GCol” value came out at 128 µg/mL. Besides, in the experiment with P. aeruginosa PAO1, the “Absolute MIC of antibiotic at 4 μg/mL GPMB” value was determined as 4 µg/mL. In addition, the MIC amounted to 1020 µg/mL in the experiment on P. aeruginosa PAO1, 8 µg/mL with A. baumannii ATCC 17978 and 128 µg/mL in the experiment with E. coli ATCC 25922 (setting [1]). Besides, the Fold-potentiation of antibiotic came out at 8 in the experiment with P. aeruginosa PAO1 (at 4 μg/mL GCol); 256 in the experiment on P. aeruginosa PAO1 (at 4 μg/mL GPMB); 16 in the experiment with A. baumannii ATCC 17978 (at 2 μg/mL GCol); 256 in the experiment on A. baumannii ATCC 17978 (at 2 μg/mL GPMB); 1024 in the experiment with E. coli ATCC 25922 (at 2 μg/mL GCol); 256 in the experiment on E. coli ATCC 25922 (at 2 μg/mL GPMB). Also, the figures for the “Absolute MIC of antibiotic at 2 μg/mL GCol” value in the experiment on A. baumannii ATCC 17978 and in the experiment with E. coli ATCC 25922 were 0.5 µg/mL and 0.125 µg/mL, respectively. In addition, the “Absolute MIC of antibiotic at 2 μg/mL GPMB” value in the experiment with A. baumannii ATCC 17978 worked out at 0.063 µg/mL; in the experiment on E. coli ATCC 25922, 0.25 µg/mL. Also, the “FIC index antibiotic + GPMB” value is recorded as 0.07 in the experiment on A. baumannii ATCC 17978 and 0.012 with E. coli ATCC 25922. Besides, in the experiment on E. coli ATCC 25922, the “FIC index antibiotic + GCol” value is 0.02. Besides, the MIC alone in the experiment with E. coli ATCC 25922 (setting [1]) is 64 µg/mL.

Regarding `CCN1CCN(C(=O)N[C@@H](C(=O)N[C@@H]2C(=O)N3[C@@H]2SC(C)(C)[C@@H]3C(=O)O)c2ccccc2)C(=O)C1=O` [Piperacillin], the “Absolute MIC of antibiotic at 4 μg/mL GCol” value in the experiment on P. aeruginosa PAO1 amounted to 1 µg/mL. Besides, the “Absolute MIC of antibiotic at 4 μg/mL GPMB” value in the experiment with P. aeruginosa PAO1 was 1 µg/mL. Also, the MIC in the experiment with P. aeruginosa PAO1 was found to be 4 µg/mL; in the experiment with A. baumannii ATCC 17978, 64 µg/mL; with E. coli ATCC 25922 (setting [1]), 2 µg/mL. The Fold-potentiation of antibiotic was found to be 4 in the experiment with P. aeruginosa PAO1 (at 4 μg/mL GCol); 4 in the experiment with P. aeruginosa PAO1 (at 4 μg/mL GPMB); 1 with A. baumannii ATCC 17978 (at 2 μg/mL GCol); 1 in the experiment with A. baumannii ATCC 17978 (at 2 μg/mL GPMB); 16 in the experiment with E. coli ATCC 25922 (at 2 μg/mL GCol); 32 with E. coli ATCC 25922 (at 2 μg/mL GPMB). The “Absolute MIC of antibiotic at 2 μg/mL GCol” value with A. baumannii ATCC 17978 amounted to 64 µg/mL; in the experiment with E. coli ATCC 25922, 0.125 µg/mL. In addition, the “Absolute MIC of antibiotic at 2 μg/mL GPMB” value with A. baumannii ATCC 17978 was found to be 64 µg/mL; in the experiment with E. coli ATCC 25922, 0.063 µg/mL. The “FIC index antibiotic + GPMB” value was 0.375 with A. baumannii ATCC 17978 and 0.281 in the experiment on E. coli ATCC 25922. In the experiment on E. coli ATCC 25922, the “FIC index antibiotic + GCol” value is 0.188.

`C=C[C@]1(C)C[C@@H](OC(=O)CO)[C@]2(C)[C@H](C)CC[C@]3(CCC(=O)[C@H]32)[C@@H](C)[C@@H]1O` [Pleuromutilin]: in the experiment with P. aeruginosa PAO1, the “Absolute MIC of antibiotic at 4 μg/mL GCol” value turned out to be 256 µg/mL. The “Absolute MIC of antibiotic at 4 μg/mL GPMB” value in the experiment with P. aeruginosa PAO1 was 32 µg/mL. The MIC with P. aeruginosa PAO1 is 1020 µg/mL; with A. baumannii ATCC 17978 it was 512 µg/mL; with E. coli ATCC 25922 (setting [1]), 64 µg/mL. The Fold-potentiation of antibiotic in the experiment with P. aeruginosa PAO1 (at 4 μg/mL GCol) is given as 4; with P. aeruginosa PAO1 (at 4 μg/mL GPMB) it was 32; with A. baumannii ATCC 17978 (at 2 μg/mL GCol), 16; in the experiment with A. baumannii ATCC 17978 (at 2 μg/mL GPMB), 256; in the experiment on E. coli ATCC 25922 (at 2 μg/mL GCol), 256; with E. coli ATCC 25922 (at 2 μg/mL GPMB) it was 512. Besides, the entries for the “Absolute MIC of antibiotic at 2 μg/mL GCol” value with A. baumannii ATCC 17978 and with E. coli ATCC 25922 were 32 µg/mL and 0.25 µg/mL, respectively. The “Absolute MIC of antibiotic at 2 μg/mL GPMB” value amounted to 2 µg/mL with A. baumannii ATCC 17978 and 0.125 µg/mL with E. coli ATCC 25922. Moreover, the “FIC index antibiotic + GPMB” value in the experiment on A. baumannii ATCC 17978 came out at 0.129; with E. coli ATCC 25922 it was 0.035. Moreover, the “FIC index antibiotic + GCol” value with E. coli ATCC 25922 is recorded as 0.066.
